Test results reported in patent publication US20130143929A1, “FUNGICIDAL IMIDAZOLES” (EI DU PONT DE NEMOURS AND COMPANY, priority 2010, published 2013).
Marks after values point to notes of the source that are not given here.

Columns and labels:
Type in all cases: in vivo
[1] = system: Puccinia recondite f. sp. tritici (the causal agent of wheat leaf rust); test: Test A: wheat leaf rust, preventive spray on wheat seedlings, visual disease rating; conditions: for Test A rating (100 = 100% disease control, 0 = no disease control relative to the controls): wheat leaf rust, preventive spray on wheat seedlings; for Test A rating (% disease control, wheat leaf rust): 100 = 100% disease control
Source text: (§1) General protocol for preparing test suspensions for Tests A-D: the test compounds were first dissolved in acetone in an amount equal to 3% of the final volume and then suspended at the desired concentration (in ppm) in acetone and purified water (50/50 mix by volume) containing 250 ppm of the surfactant Trem® 014 (polyhydric alcohol esters). The resulting test suspensions were then used in Tests A-D. Spraying a 200 ppm test suspension to the point of run-off on the test plants was the equivalent of a rate of 800 g/ha.
The test suspension was sprayed to the point of run-off on wheat seedlings. The following day the seedlings were inoculated with a spore suspension of Puccinia recondite f. sp. tritici (the causal agent of wheat leaf rust) and incubated in a saturated atmosphere at 20° C. for 24 h, and then moved to a growth chamber at 20° C. for 7 days, after which time visual disease ratings were made.
(§2) Results for Tests A-E are given in Table A. In the Table, a rating of 100 indicates 100% disease control and a rating of 0 indicates no disease control (relative to the controls). A dash (—) indicates no test results. An asterisk “*” next to the rating value indicates a 40 ppm test suspension was used.

[2] = system: Septoria tritici (the causal agent of wheat leaf blotch); test: Test B: wheat leaf blotch, preventive spray on wheat seedlings, visual disease rating; conditions: for Test B rating (100 = 100% disease control, 0 = no disease control relative to the controls): wheat leaf blotch, preventive spray on wheat seedlings; for Test B rating (% disease control, wheat leaf blotch): 100 = 100% disease control
Source text: as §1
(§3) The test suspension was sprayed to the point of run-off on wheat seedlings. The following day the seedlings were inoculated with a spore suspension of Septoria tritici (the causal agent of wheat leaf blotch) and incubated in a saturated atmosphere at 24° C. for 48 h, and then moved to a growth chamber at 20° C. for 19 days, after which time visual disease ratings were made.
as §2

[3] = system: Botrytis cinerea (the causal agent of tomato Botrytis); test: Test C: tomato Botrytis, preventive spray on tomato seedlings, visual disease rating; conditions: for Test C rating (100 = 100% disease control, 0 = no disease control relative to the controls): tomato Botrytis, preventive spray on tomato seedlings; for Test C rating (% disease control, tomato Botrytis): 100 = 100% disease control
Source text: as §1
as §3, with “tomato” for “wheat”, “Botrytis cinerea” for “Septoria tritici”, “tomato Botrytis)” for “wheat leaf blotch)”, “20°” for “24°”, “24°” for “20°”, “3” for “19”
as §2

[4] = system: Blumeria graminis f. sp. tritici (also known as Erysiphe graminis f. sp. tritici, the causal agent of wheat powdery mildew); test: Test D: wheat powdery mildew, preventive spray on wheat seedlings, visual disease rating; conditions: for Test D rating (100 = 100% disease control, 0 = no disease control relative to the controls): wheat powdery mildew, preventive spray on wheat seedlings; for Test D rating (% disease control, wheat powdery mildew): 100 = 100% disease control
Source text: as §1
The test suspension was sprayed to the point of run-off on wheat seedlings. The following day the seedlings were inoculated with a spore dust of Blumeria graminis f. sp. tritici, (also known as Erysiphe graminis f. sp. tritici, the causal agent of wheat powdery mildew) and incubated in a growth chamber at 20° C. for 8 days, after which time visual disease ratings were made.
as §2

[5] = asterisk: 40 ppm test suspension
[6] = asterisk: 40 ppm test suspension, 0 = no control
[7] = no asterisk: standard test suspension concentration, 0 = no control relative to controls
[8] = no asterisk (standard test suspension concentration, not 40 ppm)

Structure (SMILES) | Test A rating (100 = 100% disease control, 0 = no disease control relative to the controls) [1, 5] | Test B rating (100 = 100% disease control, 0 = no disease control relative to the controls) [2, 5] | Test C rating (100 = 100% disease control, 0 = no disease control relative to the controls) [3, 5] | Test D rating (100 = 100% disease control, 0 = no disease control relative to the controls) [4, 5] | Test A rating (100 = 100% disease control, 0 = no disease control relative to the controls) [1, 8] [%] | Test B rating (100 = 100% disease control, 0 = no disease control relative to the controls) [2, 8] [%] | Test C rating (100 = 100% disease control, 0 = no disease control relative to the controls) [3, 8] [%] | Test D rating (100 = 100% disease control, 0 = no disease control relative to the controls) [4, 8] [%] | also measured
COc1cc(C)c(C(O)c2c(Br)ncn2-c2ccc(F)cc2Cl)cc1Br (racemic) [compound 229] | 68* % | 36* % | 0* % | 0* % | – | – | – | – | –
Cc1nc(Cl)c(C(O)c2ccc(F)cc2Br)n1-c1c(F)cccc1Cl (centres unmarked) [compound 386] | – | – | – | – | – | – | – | – | Test A rating (% disease control, wheat leaf rust) [1, 6]: 100* %; Test B rating (% disease control, wheat leaf blotch) [2, 6]: 100* %; Test C rating (% disease control, tomato Botrytis) [3, 6]: 100* %; Test D rating (% disease control, wheat powdery mildew) [4, 6]: 73* %
Cc1nc(Br)c(C(O)c2cccnc2F)n1-c1c(F)cc(F)cc1F (centres unmarked) [compound 414] | – | – | – | – | – | – | – | – | Test A rating (% disease control, wheat leaf rust) [1, 7]: 100%; Test B rating (% disease control, wheat leaf blotch) [2, 7]: 100%; Test C rating (% disease control, tomato Botrytis) [3, 7]: 67%; Test D rating (% disease control, wheat powdery mildew) [4, 7]: 13%
Cc1ncc(C(O)c2ccc(F)cc2F)n1-c1c(F)cc(F)cc1Br (centres unmarked) [compound 410] | – | – | – | – | – | – | – | – | Test A rating (% disease control, wheat leaf rust) [1, 7]: 100%; Test B rating (% disease control, wheat leaf blotch) [2, 7]: 100%; Test C rating (% disease control, tomato Botrytis) [3, 7]: 97%; Test D rating (% disease control, wheat powdery mildew) [4, 7]: 13%
Cc1nc(Br)c(C(O)c2ccc(C#N)cc2F)n1-c1ccc(F)cc1Br (centres unmarked) [compound 326] | 99* % | 90* % | 30* % | 0* % | – | – | – | – | –
COc1ccc(C(O)c2cnc(C)n2-c2ccc(F)cc2Br)c(Cl)c1 (centres unmarked) [compound 312] | 28* % | 12* % | 0* % | 0* % | – | – | – | – | –
Cc1cc(F)ccc1C(O)c1c(C)nc(Cl)n1-c1c(F)cccc1Cl (centres unmarked) [compound 208] | 100* % | 100* % | 99* % | 81* % | – | – | – | – | –
Cc1nc(Cl)c(C(O)c2c(F)cc(F)cc2F)n1-c1ccc(F)cc1Br (centres unmarked) [compound 155] | – | – | – | – | 100 | 100 | 99 | 0 | –
Cc1nc(Cl)n(-c2c(F)cccc2Cl)c1C(O)c1ccc(F)cc1Cl (centres unmarked) [compound 206] | 100* % | 100* % | 100* % | 93* % | – | – | – | – | –
Cc1cc(C#N)ccc1C(O)c1c(Cl)nc(C)n1-c1c(F)cccc1F (centres unmarked) [compound 164] | 93* % | 100* % | 0* % | 0* % | – | – | – | – | –
Cc1cc(F)ccc1C(O)c1c(C)ncn1-c1c(F)cc(F)cc1Cl (racemic) [compound 15] | – | 0* % | – | – | 0 | – | 15 | 0 | –
Cc1nc(Br)c(C(O)c2ccc(F)cc2Br)n1-c1ccc(F)cc1Cl (racemic) [compound 253] | – | – | – | – | 100 | 100 | 100 | 27 | –
Cc1nc(Cl)c(C(O)c2ccc(F)cc2Cl)n1-c1c(F)cccc1F (centres unmarked) [compound 98] | 100* % | 100* % | 100* % | 99* % | – | – | – | – | –
Cc1nc(Br)c(C(O)c2ccc(F)cc2F)n1-c1c(F)cc(Cl)cc1F (centres unmarked) [compound 126] | 96* % | 100* % | 0* % | 0* % | – | – | – | – | –
Cc1cc(F)ccc1C(O)c1c(Cl)nc(Cl)n1-c1ccc(Cl)cc1Cl (single isomer, unassigned) [compound 85] | – | – | – | – | 99 | 100 | 88 | 87 | –
COc1ccc(C(O)c2c(C)nc(Cl)n2-c2ccc(Cl)cc2Cl)c(Cl)c1 (racemic) [compound 219] | 99* % | 100* % | 98* % | 21* % | – | – | – | – | –
Cc1nc(Cl)c(C(O)c2ccc(F)cc2Br)n1-c1c(F)cccc1Br (centres unmarked) [compound 68] | – | – | – | – | 100 | 100 | 100 | 96 | –
OC(c1ccc(F)cc1F)c1c(Br)ncn1-c1ccc(F)cc1Cl (centres unmarked) [compound 63] | – | – | – | – | 96 | 59 | 98 | 0 | –
Cc1nc(Cl)n(-c2c(F)cc(F)cc2Br)c1C(O)c1ccc(F)cc1F (single isomer, unassigned) [compound 17] | – | – | – | – | 100 | 100 | 100 | 100 | –
Cc1nc(Cl)n(-c2ccc(F)cc2Cl)c1C(O)c1c(F)cc(F)cc1F (racemic) [compound 30] | – | – | – | – | 100 | 100 | 100 | 100 | –
Cc1cc(F)ccc1C(O)c1c(Cl)nc(C)n1-c1c(F)cc(F)cc1Br (centres unmarked) [compound 315] | 99* % | 100* % | 96* % | 96* % | – | – | – | – | –
OC(c1ccc(F)cc1Cl)c1c(Cl)nc(Cl)n1-c1c(F)cccc1Cl (racemic) [compound 41] | – | – | – | – | 100 | 100 | 100 | 100 | –
OC(c1ccc(Cl)cc1)c1c(Cl)nc(Cl)n1-c1c(F)cc(F)cc1Br (centres unmarked) [compound 44] | – | – | – | – | 99 | 100 | 99 | 88 | –
